Data published in PubChem BioAssay (NCI).
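Step 1: Grow cells in 96-well plates. Step 2: Expose to compound for 48 hours at 5 concentrations. Step 3: Interpolate endpoints linearly; if unreached, use highest concentration. TGI denotes the concentration required for complete inhibition of growth.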

Columns and labels:
Experiment in all cases: growth of human tumour cells (NCI), 48 h
[1] = test system: HT29 colon
[2] = test system: IGROV1 ovarian
[3] = test system: SR leukemia
[4] = test system: HCT-116 colon
[5] = test system: MALME-3M melanoma
[6] = test system: U251 CNS
[7] = test system: UACC-257 melanoma
[8] = test system: 786-0 renal
[9] = test system: RPMI-8226 leukemia
[10] = test system: SNB-75 CNS
[11] = test system: LOX IMVI melanoma
[12] = test system: UO-31 renal
[13] = test system: KM12 colon
[14] = test system: MOLT-4 leukemia
[15] = test system: UACC-62 melanoma
[16] = test system: NCI-H522 lung
[17] = test system: SW-620 colon
[18] = test system: MDA-N
[19] = test system: OVCAR-4 ovarian
[20] = test system: NCI-H226 lung
[21] = test system: A498 renal
[22] = test system: RXF 393 renal
[23] = test system: CAKI-1 renal
[24] = test system: T-47D breast
[25] = test system: SF-539 CNS
[26] = test system: SK-MEL-2 melanoma
[27] = test system: TK-10 renal
[28] = test system: CCRF-CEM leukemia
[29] = test system: MCF7 breast
[30] = test system: MDA-MB-231 breast
[31] = test system: NCI/ADR-RES ovarian
[32] = test system: SK-MEL-28 melanoma
[33] = test system: BT-549 breast
[34] = test system: NCI-H460 lung
[35] = test system: PC-3 prostate
[36] = test system: EKVX NSCLC
[37] = test system: ACHN renal
[38] = test system: A549 NSCLC
[39] = test system: HS 578T breast
[40] = test system: OVCAR-8 ovarian
[41] = test system: SNB-19 CNS
[42] = test system: OVCAR-3 ovarian
[43] = test system: HCT-15 colon
[44] = test system: HL-60(TB) leukemia
[45] = test system: SN12C renal
[46] = test system: HOP-62 NSCLC
[47] = test system: HOP-92 NSCLC
[48] = test system: OVCAR-5 ovarian
[49] = test system: SF-268 CNS
[50] = test system: SF-295 CNS
[51] = test system: K-562 leukemia
[52] = test system: M14 melanoma
[53] = test system: COLO 205 colon
[54] = test system: NCI-H23 lung
[55] = test system: HCC-2998 colon
[56] = test system: MDA-MB-435
[57] = test system: DU-145 prostate
[58] = test system: SK-OV-3 ovarian
[59] = test system: SK-MEL-5 melanoma

Structure (SMILES): CC(C)Cn1cnc2c(NCC(C)O)nc3ccccc3c21 (centres undefined)
- TGI [1]: > 100 µM
- TGI [2]: > 100 µM
- TGI [3]: > 100 µM
- TGI [4]: > 100 µM
- TGI [5]: > 100 µM
- TGI [6]: > 100 µM
- TGI [7]: > 100 µM
- TGI [8]: > 100 µM
- TGI [9]: > 100 µM
- TGI [10]: > 100 µM
- TGI [11]: > 100 µM
- TGI [12]: > 100 µM
- TGI [13]: > 100 µM
- TGI [14]: > 100 µM
- TGI [15]: > 100 µM
- TGI [16]: > 100 µM
- TGI [17]: > 100 µM
- TGI [18]: > 100 µM
- TGI [19]: > 100 µM
- TGI [20]: > 100 µM
- TGI [21]: > 100 µM
- TGI [22]: > 100 µM
- TGI [23]: > 100 µM
- TGI [24]: > 100 µM
- TGI [25]: > 100 µM
- TGI [26]: > 100 µM
- TGI [27]: > 100 µM
- TGI [28]: > 100 µM
- TGI [29]: > 100 µM
- TGI [30]: > 100 µM
- TGI [31]: > 100 µM
- TGI [32]: > 100 µM
- TGI [33]: > 100 µM
- TGI [34]: > 100 µM
- TGI [35]: > 100 µM
- TGI [36]: > 100 µM
- TGI [37]: > 100 µM
- TGI [38]: > 100 µM
- TGI [39]: > 100 µM
- TGI [40]: > 100 µM
- TGI [41]: > 100 µM
- TGI [42]: > 100 µM
- TGI [43]: > 100 µM
- TGI [44]: > 100 µM
- TGI [45]: > 100 µM
- TGI [46]: > 100 µM
- TGI [47]: > 100 µM
- TGI [48]: > 100 µM
- TGI [49]: > 100 µM
- TGI [50]: > 100 µM
- TGI [51]: > 100 µM
- TGI [52]: > 100 µM
- TGI [53]: > 100 µM
- TGI [54]: > 100 µM
- TGI [55]: > 100 µM
- TGI [56]: > 100 µM
- TGI [57]: > 100 µM
- TGI [58]: > 100 µM
- TGI [59]: > 100 µM

Structure (SMILES): OC1(c2cccs2)c2cccc(Cl)c2C(O)(c2cccs2)c2c(Cl)cccc21 (centres undefined)
- TGI [1]: > 100 µM
- TGI [2]: > 100 µM
- TGI [3]: > 100 µM
- TGI [4]: > 100 µM
- TGI [5]: > 100 µM
- TGI [6]: > 100 µM
- TGI [7]: > 100 µM
- TGI [8]: > 100 µM
- TGI [9]: > 100 µM
- TGI [10]: > 100 µM
- TGI [11]: > 100 µM
- TGI [12]: > 100 µM
- TGI [13]: > 100 µM
- TGI [14]: > 100 µM
- TGI [15]: > 100 µM
- TGI [16]: > 100 µM
- TGI [17]: > 100 µM
- TGI [18]: > 100 µM
- TGI [19]: > 100 µM
- TGI [20]: > 100 µM
- TGI [21]: > 100 µM
- TGI [22]: > 100 µM
- TGI [23]: > 100 µM
- TGI [24]: > 100 µM
- TGI [25]: > 100 µM
- TGI [26]: > 100 µM
- TGI [27]: > 100 µM
- TGI [28]: > 100 µM
- TGI [29]: > 100 µM
- TGI [30]: > 100 µM
- TGI [31]: > 100 µM
- TGI [32]: > 100 µM
- TGI [33]: > 100 µM
- TGI [34]: > 100 µM
- TGI [35]: > 100 µM
- TGI [36]: > 100 µM
- TGI [37]: > 100 µM
- TGI [38]: > 100 µM
- TGI [39]: 33.4 µM
- TGI [40]: > 100 µM
- TGI [41]: > 100 µM
- TGI [42]: > 100 µM
- TGI [43]: > 100 µM
- TGI [44]: > 100 µM
- TGI [45]: > 100 µM
- TGI [46]: > 100 µM
- TGI [47]: > 100 µM
- TGI [48]: > 100 µM
- TGI [49]: 75 µM
- TGI [50]: > 100 µM
- TGI [51]: > 100 µM
- TGI [52]: > 100 µM
- TGI [53]: > 100 µM
- TGI [54]: > 100 µM
- TGI [55]: > 100 µM
- TGI [56]: > 100 µM
- TGI [57]: > 100 µM
- TGI [58]: > 100 µM
- TGI [59]: > 100 µM

Structure (SMILES): Cc1ccc2c(c1)[nH]c(=S)n2/C=C1\C(=O)Oc2ccccc2C1=O
- TGI [1]: > 100 µM
- TGI [2]: > 100 µM
- TGI [3]: > 100 µM
- TGI [4]: > 100 µM
- TGI [5]: > 100 µM
- TGI [6]: > 100 µM
- TGI [7]: > 100 µM
- TGI [8]: > 100 µM
- TGI [9]: > 100 µM
- TGI [10]: > 100 µM
- TGI [11]: > 100 µM
- TGI [12]: > 100 µM
- TGI [13]: > 100 µM
- TGI [14]: > 100 µM
- TGI [15]: > 100 µM
- TGI [16]: > 100 µM
- TGI [17]: > 100 µM
- TGI [18]: > 100 µM
- TGI [19]: > 100 µM
- TGI [20]: > 100 µM
- TGI [21]: > 100 µM
- TGI [22]: > 100 µM
- TGI [23]: > 100 µM
- TGI [24]: > 100 µM
- TGI [25]: > 100 µM
- TGI [26]: > 100 µM
- TGI [27]: > 100 µM
- TGI [28]: > 100 µM
- TGI [29]: > 100 µM
- TGI [30]: > 100 µM
- TGI [31]: > 100 µM
- TGI [32]: > 100 µM
- TGI [33]: > 100 µM
- TGI [34]: > 100 µM
- TGI [35]: > 100 µM
- TGI [37]: > 100 µM
- TGI [38]: > 100 µM
- TGI [39]: > 100 µM
- TGI [40]: > 100 µM
- TGI [41]: > 100 µM
- TGI [42]: > 100 µM
- TGI [43]: > 100 µM
- TGI [44]: > 100 µM
- TGI [45]: > 100 µM
- TGI [46]: > 100 µM
- TGI [47]: 71.5 µM
- TGI [48]: > 100 µM
- TGI [49]: > 100 µM
- TGI [50]: > 100 µM
- TGI [51]: > 100 µM
- TGI [52]: > 100 µM
- TGI [53]: > 100 µM
- TGI [54]: > 100 µM
- TGI [55]: > 100 µM
- TGI [56]: > 100 µM
- TGI [57]: > 100 µM
- TGI [59]: > 100 µM

Structure (SMILES): C=CCN1C(=O)/C(=C/c2ccc(OC)cc2)N=C1SC/C=C/C
- TGI [1]: > 100 µM
- TGI [2]: > 100 µM
- TGI [3]: 63.8 µM
- TGI [4]: > 100 µM
- TGI [5]: > 100 µM
- TGI [6]: > 100 µM
- TGI [7]: > 100 µM
- TGI [8]: > 100 µM
- TGI [9]: > 100 µM
- TGI [10]: > 100 µM
- TGI [11]: > 100 µM
- TGI [12]: > 100 µM
- TGI [13]: > 100 µM
- TGI [14]: 66.7 µM
- TGI [15]: > 100 µM
- TGI [16]: > 100 µM
- TGI [17]: > 100 µM
- TGI [18]: > 100 µM
- TGI [19]: > 100 µM
- TGI [20]: > 100 µM
- TGI [21]: > 100 µM
- TGI [22]: 87 µM
- TGI [23]: > 100 µM
- TGI [24]: 94.2 µM
- TGI [25]: > 100 µM
- TGI [26]: > 100 µM
- TGI [27]: > 100 µM
- TGI [28]: > 100 µM
- TGI [29]: > 100 µM
- TGI [30]: > 100 µM
- TGI [31]: > 100 µM
- TGI [32]: > 100 µM
- TGI [33]: > 100 µM
- TGI [34]: > 100 µM
- TGI [35]: > 100 µM
- TGI [36]: > 100 µM
- TGI [37]: > 100 µM
- TGI [38]: > 100 µM
- TGI [39]: > 100 µM
- TGI [40]: 80.1 µM
- TGI [41]: > 100 µM
- TGI [42]: > 100 µM
- TGI [43]: > 100 µM
- TGI [44]: 54.4 µM
- TGI [45]: 80.6 µM
- TGI [46]: > 100 µM
- TGI [47]: 93.8 µM
- TGI [48]: > 100 µM
- TGI [49]: > 100 µM
- TGI [50]: > 100 µM
- TGI [51]: > 100 µM
- TGI [52]: > 100 µM
- TGI [53]: > 100 µM
- TGI [54]: > 100 µM
- TGI [55]: > 100 µM
- TGI [56]: > 100 µM
- TGI [57]: > 100 µM
- TGI [58]: > 100 µM
- TGI [59]: 39.4 µM
